Assay [1] concerns the target T1, Peroxisome proliferator-activated receptor gamma (Homo sapiens) (UniProt P37231).
T1 sequence (whole entry): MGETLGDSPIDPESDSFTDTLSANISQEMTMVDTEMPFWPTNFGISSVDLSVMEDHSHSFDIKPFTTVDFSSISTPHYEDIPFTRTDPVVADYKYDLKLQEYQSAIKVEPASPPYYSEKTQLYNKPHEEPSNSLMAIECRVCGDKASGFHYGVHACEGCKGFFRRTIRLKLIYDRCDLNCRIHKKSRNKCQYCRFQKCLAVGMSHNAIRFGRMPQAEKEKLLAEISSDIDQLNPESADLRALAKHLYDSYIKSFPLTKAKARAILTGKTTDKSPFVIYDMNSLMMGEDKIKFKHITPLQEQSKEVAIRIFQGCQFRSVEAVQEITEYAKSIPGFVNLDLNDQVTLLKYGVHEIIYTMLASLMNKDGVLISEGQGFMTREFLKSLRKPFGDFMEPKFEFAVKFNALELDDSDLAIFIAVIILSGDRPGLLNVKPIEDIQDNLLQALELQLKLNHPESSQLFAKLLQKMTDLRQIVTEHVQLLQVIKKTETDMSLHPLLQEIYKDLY
In words: Agonist activity at human PPARgamma LBD expressed in COS7 cells after 12 hrs by Dual-Glo luciferase assay relative to pioglitazone. The note with it: COS-7. In kind it is cell-based.

Assay [2] addresses T2, Peroxisome proliferator-activated receptor gamma (Homo sapiens, UniProt P37231).
T2 sequence (P37231 whole entry): T1 sequence (whole entry)
In words: Agonist activity at human PPARgamma LBD expressed in COS7 cells after 12 hrs by Dual-Glo luciferase assay. In kind it is cell-based, COS-7.

The target of assay [3] is Peroxisome proliferator-activated receptor alpha (Homo sapiens, UniProt Q07869, T279A). In words: Agonist activity at wild-type human PPARalpha Thr279Ala mutant expressed in COS7 cells after 12 hrs by Dual-Glo luciferase assay. It counts as cell-based, COS-7.
Assay [4] concerns T3, Peroxisome proliferator-activated receptor alpha (Homo sapiens), Q07869 [T279A].
T3 sequence (whole entry): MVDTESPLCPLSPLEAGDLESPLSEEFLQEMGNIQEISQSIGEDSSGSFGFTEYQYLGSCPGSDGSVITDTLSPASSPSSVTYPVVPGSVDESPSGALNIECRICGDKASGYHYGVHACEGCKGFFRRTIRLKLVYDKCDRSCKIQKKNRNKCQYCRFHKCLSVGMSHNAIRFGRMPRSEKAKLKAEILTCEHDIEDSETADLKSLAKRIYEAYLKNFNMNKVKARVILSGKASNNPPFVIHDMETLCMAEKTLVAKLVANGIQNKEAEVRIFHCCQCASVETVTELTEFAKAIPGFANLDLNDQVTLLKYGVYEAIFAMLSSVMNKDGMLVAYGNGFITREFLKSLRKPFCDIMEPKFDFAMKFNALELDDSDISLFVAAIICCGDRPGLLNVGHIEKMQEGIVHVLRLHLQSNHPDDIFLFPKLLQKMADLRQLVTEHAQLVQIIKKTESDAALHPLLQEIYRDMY
In words: Agonist activity at wild-type human PPARalpha Thr279Ala mutant expressed in COS7 cells after 12 hrs by Dual-Glo luciferase assay relative to control. It counts as cell-based. Particulars: COS-7.

Assay [5] deals with T4, Peroxisome proliferator-activated receptor alpha (Homo sapiens) (UniProt Q07869).
T4 sequence (whole entry): T3 sequence (whole entry) with A279T
In words: Agonist activity at wild-type human PPARalpha LBD expressed in COS7 cells after 12 hrs by Dual-Glo luciferase assay relative to control. It counts as cell-based. Particulars: COS-7.

In assay [6] the target is T5, Peroxisome proliferator-activated receptor alpha (Homo sapiens, UniProt Q07869).
T5 sequence (Q07869 whole entry): T3 sequence (whole entry) with A279T
In words: Agonist activity at wild-type human PPARalpha LBD expressed in COS7 cells after 12 hrs by Dual-Glo luciferase assay. It counts as cell-based, COS-7.

The next assay relates to COS-7. In words: Selectivity ratio of EC50 for human PPARgamma LBD expressed in COS7 cells to EC50 for wild-type human PPARalpha LBD expressed in COS7 cells. It counts as cell-based.
The target in assay [7] is T4, Peroxisome proliferator-activated receptor alpha (Homo sapiens). In words: Agonist activity at wild-type human PPARalpha LBD expressed in COS7 cells after 12 hrs by Dual-Glo luciferase assay relative to pirinixic acid. In kind it is cell-based. The note with it: COS-7.

Where a chain is given by its changes, count along the chain named.

Regarding `Cc1cccc(Nc2cc(Cl)nc(SCC(=O)O)n2)c1C`, the %max in assay [1] came out at 79%.
As a reminder, the EC50 is the concentration giving half of the maximal effect. Higher therefore signals a need for much substance. In the case of `CCCCCCC(Sc1nc(Cl)cc(Nc2ccc(C(=O)c3ccccc3)cc2)n1)C(=O)O` (stereo not drawn), the EC50 in assay [2] was found to be 1200 nM; in assay [3], 70 nM; in assay [6], 280 nM. In addition, the %max in assay [4] came to 105%; in assay [5], 134%; in assay [1], 117%.
Take `CCCCCCC(Sc1nc(Cl)cc(Nc2ccc(Nc3ccccc3)cc2)n1)C(=O)O` (stereo not drawn): the concentration giving a half-maximal response (EC50) in assay [2] is 690 nM; in assay [3] it was 100 nM; in assay [6] it was 70 nM. Besides, the figures for the %max in assay [4], in assay [5] and in assay [1] were 115%, 95% and 126%, respectively. In addition, in the assay with COS-7, the Ratio EC50 was over 10.
For the molecule `CCCCCCC(Sc1nc(Cl)cc(Nc2cccc(C)c2C)n1)C(=O)O` (stereo not drawn), the values for the %max in assay [7] and in assay [1] were 146% and 139%, respectively. This molecule also displayed an EC50 in assay [6] of 1000 nM.
For `CCCCCCC(Sc1nc(Cl)cc(Nc2ccc(Oc3ccccc3)cc2)n1)C(=O)O` (stereo not drawn), the values for the EC50 in assay [2], in assay [3] and in assay [6] were 2360 nM, 150 nM and 280 nM, respectively. Further, the values for the %max in assay [4], in assay [5] and in assay [1] were 87%, 155% and 146%, respectively.
For the molecule `CCCCC(Sc1nc(Cl)cc(Nc2ccc(Nc3ccccc3)cc2)n1)C(=O)O` (stereo not drawn), the figures for the EC50 in assay [2] and in assay [6] were 1060 nM and 350 nM, respectively. The figures for the %max in assay [5] and in assay [1] were 137% and 135%, respectively.
As for `CCCCCCC(Sc1nc(Cl)cc(Nc2ccc(Cc3ccccc3)cc2)n1)C(=O)O` (stereo not drawn), the results for the EC50 in assay [2], in assay [3] and in assay [6] were 490 nM, 240 nM and 720 nM, respectively. Also, the results for the %max in assay [4], in assay [5] and in assay [1] were 83%, 127% and 158%, respectively.
Regarding `CCCCC(Sc1nc(Cl)cc(Nc2cccc(C)c2C)n1)C(=O)O` (stereo not drawn), the %max in assay [1] turned out to be 120%.
For the molecule `O=C(O)CSc1nc(Cl)cc(Nc2ccc(Nc3ccccc3)cc2)n1`, the EC50 was 12400 nM in assay [2] and 12000 nM in assay [6]. Besides, the %max worked out at 133% in assay [5] and 143% in assay [1].

For the origin of these results see ChEMBL document CHEMBL3352634 (Bioorg Med Chem Lett, 2014).
